Where two headings read alike, the source gives them in different places.
What was measured:
S. aureus 15819 = test: Antibiotic MIC by microdilution with or without sub-MIC polymer; format: cell-based, Staphylococcus aureus; conditions: S. aureus 15819
Method: MICs were determined by microdilution susceptibility testing in 96-well plates (Nunc) using inocula of 10^5 bacteria per ml. One hundred (100) μl of a bacterial suspension were added to 100 μl of culture medium (control) or to 100 μl of culture medium containing various antibiotic and C12(5-ene)KKNC12KNH2 (SEQ ID NO: 2) concentrations in 2-fold serial dilutions. Inhibition of proliferation was determined by optical density measurements at 620 nm after an incubation period of 24 hours at 37° C.

S. aureus 15877 = test: as above; format: cell-based, Staphylococcus aureus
MRSA 15903 = test: microbe, parasite or virus in culture; format: cell-based, Staphylococcus aureus
Outline: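 Values are FIC indexes, summing each agent's MIC in combination divided by its MIC alone, for MRSA 15903. Interpretation: <0.5 clear re-sensitization, 0.5 to 4 marginal or none, >4 antagonistic.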

[1] = test system: E. coli K-12 efflux knockout mutant; format: cell-based, Escherichia coli; conditions: E. coli AG100A (efflux−)
Outline: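 Broth microdilution, inocula 10^5 bacteria/ml, 24 h at 37 °C. Growth read as OD620 against calibration standards.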

S. maltophila 748 = test: Antibiotic MIC by microdilution with or without sub-MIC polymer; format: cell-based, Stenotrophomonas maltophila
S. aureus 43300 = test: as above; format: cell-based, Staphylococcus aureus
E. coli 14384 = test: as above; format: cell-based, Escherichia coli; conditions: E. coli 14384
Method: (§1) MICs were determined by microdilution susceptibility testing in 96-well plates (by Nunc) using inocula of 10^5 bacteria per ml. Cell populations were evaluated by optical density measurements at 620 nm and were calibrated against a set of standards. Hundred (100) μl of a bacterial suspension were added to 100 μl of culture medium (control) or to 100 μl of culture medium containing various polymer concentrations in 2-fold serial dilutions. Inhibition of proliferation was determined by optical density measurements at 620 nm after an incubation period of 24 hours at 37° C.
(§2) 100 μl of a bacterial suspension were added to 100 μl of culture medium (control) or to 100 μl of culture medium containing various antibiotic and C14(9-ene)KKNC12KNH2 (SEQ ID NO: 5) concentrations in 2-fold serial dilutions. Inhibition of proliferation was determined by optical density measurements at 620 nm after an incubation period of 24 hours at 37° C.

[2] = test system: E. coli K-12 resistant wild type; format: cell-based, Escherichia coli; conditions: E. coli AG100 (w.t.)
E. coli 16329 = format: cell-based, Escherichia coli; conditions: E. coli U-16329
Method: as §1, §2

E. coli 16327 = test: microbe, parasite or virus in culture
[3] = +¼ MIC (1.6 μM) C12(5-ene)KKNC12KNH2
[4] = +¼ MIC (1.6 μM) C12K(KNC12K)3NH2
[5] = +½ MIC (3.12 μM) C12(5-ene)KKNC12KNH2
[6] = +⅓ MIC (2.1 μM) C12(5-ene)KKNC12KNH2
[7] = +⅓ MIC (2.1 μM) C12K(KNC12K)3NH2
[8] = polymer at ½ of its MIC (Table 16)
[9] = the OAK at ½ of its MIC (Table 17)
[10] = +½ MIC (3.12 μM) C14(9-ene)KKNC12KNH2

CC[C@H]1OC(=O)[C@H](C)[C@@H](O[C@H]2C[C@@](C)(OC)[C@@H](O)[C@H](C)O2)[C@H](C)[C@@H](O[C@@H]2O[C@H](C)C[C@H](N(C)C)[C@H]2O)[C@](C)(O)C[C@@H](C)C(=O)[C@H](C)[C@@H](O)[C@]1(C)O [Erythromycin, erythromycin]
Antibiotic MIC (S. aureus 15819; [3]): 0.25 µg/mL | Antibiotic MIC (S. aureus 15819; [4]): 0.5 µg/mL | Antibiotic MIC (S. aureus 15819; +¼ MIC (1.6 μM) C12KKNC12KNH2): 0.5 µg/mL | Antibiotic MIC (S. aureus 15819; [5]): 0.25 µg/mL | Antibiotic MIC (S. aureus 15819; +½ MIC (3.12 μM) C12KKNC12KNH2): 0.5 µg/mL | Antibiotic MIC (S. aureus 15819; [6]): 0.25 µg/mL | Antibiotic MIC (S. aureus 15819; [7]): 0.25 µg/mL | Antibiotic MIC (S. aureus 15819; +⅓ MIC (2.1 μM) C12KKNC12KNH2): 0.5 µg/mL | Antibiotic MIC (S. aureus 15819; no polymer (None), Table 8): 0.25 µg/mL | Antibiotic MIC (S. aureus 15819; no polymer (None), Table 11): 0.5 µg/mL | Antibiotic MIC (S. aureus 15819; no polymer (None), Table 13): 0.5 µg/mL | Antibiotic MIC (S. aureus 15877; [3]): >512 µg/mL | Antibiotic MIC (S. aureus 15877; [5]): >512 µg/mL | Antibiotic MIC (S. aureus 15877; [6]): >512 µg/mL | Antibiotic MIC (S. aureus 15877; no polymer (None), Table 8): >512 µg/mL | MIC (MRSA 15903; MRSA 15903, +¼ polymer MIC (1.6 μM) NC12(KNC12K)2NH2): 1 µg/mL | MIC (MRSA 15903; MRSA 15903, +½ polymer MIC (3.1 μM) NC12(KNC12K)2NH2): 0.016 µg/mL | MIC, ½ + MIC OAK (MRSA 15903; MRSA 15903, with C12K(KNC10K)3NH2 (SEQ ID NO: 10) at ½ of its MIC): 0.13 to 0.25 µg/mL | MIC, ⅓ + MIC OAK (MRSA 15903; MRSA 15903, with C12K(KNC10K)3NH2 (SEQ ID NO: 10) at ⅓ of its MIC): 0.5 µg/mL | MIC (MRSA 15903; S. aureus CI-15903, +polymer (¼ MIC) C12(5-ene)KKNC12KNH2): 0.5 µg/mL | MIC (MRSA 15903; S. aureus CI-15903, +polymer (½ MIC) C12(5-ene)KKNC12KNH2): 0.1 µg/mL | MIC (MRSA 15903; S. aureus CI-15903, +polymer (⅓ MIC) C12(5-ene)KKNC12KNH2): 0.1 µg/mL | MIC (MRSA 15903; Staphylococcus aureus, MRSA, 24 h, MRSA 15903, antibiotic alone (Table 22), read-out: MIC, Alone): 1 µg/mL | MIC (MRSA 15903; Staphylococcus aureus, MRSA, 24 h, MRSA 15903, antibiotic alone, read-out: MIC): 0.5 µg/mL | MIC (MRSA 15903; Staphylococcus aureus, MRSA, 24 h, S. aureus CI-15903, alone, read-out: MIC): 0.5 µg/mL | Antibiotic MIC, None ([1]; antibiotic alone (Table 16)): 4 to 8 µg/mL | Antibiotic MIC, None ([1]; antibiotic alone (Table 17)): 4 to 8 µg/mL | Antibiotic MIC in presence of C12K(NC8K)7NH2 (SEQ ID NO: 4), +¼ MIC ([1]; polymer at ¼ of its MIC (Table 16)): 4 to 8 µg/mL | Antibiotic MIC in presence of C12K(NC8K)7NH2 (SEQ ID NO: 4), +½ MIC [1, 8]: 2 µg/mL | Antibiotic MIC in presence of C12K(NC8K)7NH2 (SEQ ID NO: 4), +⅓ MIC ([1]; polymer at ⅓ of its MIC (Table 16)): 2 to 4 µg/mL | Antibiotic MIC in presence of the OAK, +¼ MIC ([1]; the OAK at ¼ of its MIC (Table 17)): 4 to 8 µg/mL | Antibiotic MIC in presence of the OAK, +½ MIC [1, 9]: 1 to 2 µg/mL | Antibiotic MIC in presence of the OAK, +⅓ MIC ([1]; the OAK at ⅓ of its MIC (Table 17)): 4 µg/mL | Antibiotic MIC (S. maltophila 748; [4]): 512 µg/mL | Antibiotic MIC (S. maltophila 748; [7]): 512 µg/mL | Antibiotic MIC (S. maltophila 748; no polymer (None), Table 13): 512 µg/mL | Antibiotic MIC (S. aureus 43300; [3]): 512 µg/mL | Antibiotic MIC (S. aureus 43300; +¼ MIC (1.6 μM) C12K(KNC12K)2NH2): >512 µg/mL | Antibiotic MIC (S. aureus 43300; +¼ MIC (1.6 μM) C12KKNC12KNH2): >512 µg/mL | Antibiotic MIC (S. aureus 43300; +¼ MIC (1.6 μM) C14(9-ene)KKNC12KNH2): >512 µg/mL | Antibiotic MIC (S. aureus 43300; +¼ MIC (1.6 μM) C16(9-ene)KKNC12KNH2): 512 µg/mL | Antibiotic MIC (S. aureus 43300; +½ MIC (3.12 μM) C12K(KNC12K)2NH2): >512 µg/mL | Antibiotic MIC (S. aureus 43300; +½ MIC (3.12 μM) C12KKNC12KNH2): >512 µg/mL | Antibiotic MIC (S. aureus 43300; [10]): >512 µg/mL | Antibiotic MIC (S. aureus 43300; +½ MIC (3.12 μM) C16(9-ene)KKNC12KNH2): 512 µg/mL | Antibiotic MIC (S. aureus 43300; [6]): 512 µg/mL | Antibiotic MIC (S. aureus 43300; +⅓ MIC (2.1 μM) C12K(KNC12K)2NH2): >512 µg/mL | Antibiotic MIC (S. aureus 43300; +⅓ MIC (2.1 μM) C12KKNC12KNH2): >512 µg/mL | Antibiotic MIC (S. aureus 43300; +⅓ MIC (2.1 μM) C14(9-ene)KKNC12KNH2): >512 µg/mL | Antibiotic MIC (S. aureus 43300; +⅓ MIC (2.1 μM) C16(9-ene)KKNC12KNH2): 512 µg/mL | Antibiotic MIC (S. aureus 43300; no polymer (None), Table 8): 512 µg/mL | Antibiotic MIC (S. aureus 43300; no polymer (None), Table 9): >512 µg/mL | Antibiotic MIC (S. aureus 43300; no polymer (None), Table 10): 512 µg/mL | Antibiotic MIC (S. aureus 43300; no polymer (None), Table 11): >512 µg/mL | Antibiotic MIC (S. aureus 43300; no polymer (None), Table 12): >512 µg/mL | Antibiotic MIC (E. coli 14384; +¼ MIC C12K(NC8K)5NH2): 32 to 64 µg/mL | Antibiotic MIC (E. coli 14384; [10]): 32 µg/mL | Antibiotic MIC (E. coli 14384; +½ MIC C12K(NC8K)5NH2): 4 to 8 µg/mL | Antibiotic MIC (E. coli 14384; +⅓ MIC C12K(NC8K)5NH2): 32 µg/mL | Antibiotic MIC in presence of C12K(NC8K)7NH2 (SEQ ID NO: 4), +½ MIC (E. coli 14384; polymer at ½ of its MIC): 8 to 16 µg/mL | Antibiotic MIC in presence of C12K(NC8K)7NH2 (SEQ ID NO: 4), +⅓ MIC (E. coli 14384; polymer at ⅓ of its MIC): 16 to 32 µg/mL | Antibiotic MIC in presence of C12K(NC8K)7NH2 (SEQ ID NO: 4), +½ MIC [2, 8]: 8 to 16 µg/mL | Antibiotic MIC in presence of the OAK, +½ MIC [2, 9]: 16 µg/mL | Antibiotic MIC (E. coli 16329; +½ MIC C12K(NC8K)5NH2): 32 µg/mL | Antibiotic MIC in presence of C12K(NC8K)7NH2 (SEQ ID NO: 4), +½ MIC (E. coli 16329; polymer at ½ of its MIC): 16 µg/mL | MIC, ½ + MIC OAK (E. coli 16327; E. coli U16327, with C12K(KNC10K)3NH2 (SEQ ID NO: 10) at ½ of its MIC): 4 to 8 µg/mL | MIC, ⅓ + MIC OAK (E. coli 16327; E. coli U16327, with C12K(KNC10K)3NH2 (SEQ ID NO: 10) at ⅓ of its MIC): 8 µg/mL | Antibiotic MIC in presence of C12K(NC8K)7NH2 (SEQ ID NO: 4), +½ MIC (E. coli 16327; E. coli U-16327, polymer at ½ of its MIC): 32 µg/mL

Source: patent US20180153995A1, “USE OF ANTIMICROBIAL POLYMERS FOR RE-SENSITIZATION OF MICROORGANISMS UPON EMERGENCE OF RESISTANCE TO ANTI-MICROBIAL AGENTS” (Technion Research & Development Foundation Limited, priority 2008, published 2018)
